Read-outs that look alike come from different tables or passages of the source.
Target: T1, His-tagged Bcl-2 (Homo sapiens, UniProt P10415)
T1 construct: gene BCL2; commercial His-tagged Bcl-2 protein (Abcam); tag kept
Assay: competitive ELISA, His-tagged Bcl-2 vs immobilised biotinylated Bim peptide
Assay type: binding
Conditions: read-out: ELISA IC50 (μM) ^1

[1] = competition with Bim peptide (residues 81–106), 20 nM Bcl-2, PBS, room temperature

T1 sequence (P10415 whole entry): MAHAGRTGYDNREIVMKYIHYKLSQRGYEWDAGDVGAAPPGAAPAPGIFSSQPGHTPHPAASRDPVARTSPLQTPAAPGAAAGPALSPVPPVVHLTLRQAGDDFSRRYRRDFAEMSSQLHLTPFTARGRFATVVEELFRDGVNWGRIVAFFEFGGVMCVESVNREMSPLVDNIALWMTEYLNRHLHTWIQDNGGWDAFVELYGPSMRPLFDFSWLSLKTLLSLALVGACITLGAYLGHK

An IC50 [1] of 1.93 ± 0.007 µM was found for Cc1ccc(Nc2nnc(-c3cc(-c4ccc(Br)cc4)nc4ccccc34)o2)cc1 [6c] in this work.
An IC50 of 14.5 ± 1.2 µM was found for O=[N+]([O-])c1ccc(Nc2nnc(-c3cc(-c4ccc(Br)cc4)nc4ccccc34)o2)cc1 [6d] in this work.
An IC50 [1] of 0.15 ± 0.02 µM was found for COc1ccc2nc(-c3ccc(Br)cc3)cc(-c3nnc(Nc4ccc([N+](=O)[O-])cc4)o3)c2c1 [6i] in this work.
